We go through two molecules from patent publication US20200345011A1, “METHOD OF […] GROWTH IN SOIL” (CH2O Incorporated, priority 2008, published 2020).

Series [1] relates to weed and undesirable plant growth. Briefly: Weed growth suspension in treated, plastic-covered soil beds. It is filed as in vivo. As to conditions: after six days of treatment. The text has this: (§1) Water (27.5%), PBTC (17.5%) and hydrochloric acid (HCl) (55%) were admixed to form a first solution. Water (85%) and sodium chlorite (15%) were admixed to form a second solution. The first and second solutions were combined to form a combined solution. Sufficient contact time was allowed in the mixing vessel 12 to convert a substantial portion of the sodium chlorite solution into chlorine dioxide. The combined solution can also be referred to as chlorine dioxide. For test purposes, five soil beds were prepared. These beds were covered with sheet plastic. In the first bed, 150 ppm of chlorine dioxide was added irrigation water and the mixture was introduced to the soil bed until the soil bed was saturated. In the second soil bed, 350 ppm of chlorine dioxide was added to irrigation water and the mixture was introduced into the second soil bed until the second soil bed was saturated. The third soil bed received 750 ppm of chlorine dioxide in irrigation water until that bed was saturated. The fourth soil bed received a mixture of 950 ppm of chlorine dioxide in irrigation water until that soil bed was saturated. The fifth soil bed was treated with methyl-bromide at E.P.A. label recommended dose rates.

Series [2] is described as follows: Crop yield and fruit quality from treated soils. It is filed as in vivo. From the text: Water (27.5%), PBTC (17.5%) and hydrochloric acid (HCl) (55%) were admixed to form a first solution. Water (85%) and sodium chlorite (15%) were admixed to form a second solution. The first and second solutions were combined to form a combined solution. Sufficient contact time was allowed in the mixing vessel 12 to convert a substantial portion of the sodium chlorite solution into chlorine dioxide. The combined solution can also be referred to as chlorine dioxide. For test purposes, five soil beds were prepared. These beds were covered with sheet plastic. […] […] […] […] The fifth soil bed was treated with methyl-bromide at E.P.A. label recommended dose rates.

The nature of series [3]: Decomposition in soil and consequences to the environment. The conditions noted are these: soil bed treatment.
Text: as §1

Setting [4] is: soil treated with methyl bromide, used as at EPA label requirements.

Regarding `[O][Cl+][O-]` [Chlorine Dioxide, chlorine dioxide], in series [1] (all four dosages (150, 350, 750, 950 ppm in irrigation water, bed saturated)), the “Suspension of weed and undesirable plant growth” value was “suspend weed and undesirable plant growth entirely”. Also, the Crates/Acres in series [2] (75 ppm solution) worked out at 495 Crates/Acres; in series [2] (175 ppm solution), 483 Crates/Acres; in series [2] (375 ppm solution), 429 Crates/Acres; in series [2] (475 ppm solution) it was 651 Crates/Acres. Besides, the “Fruit Grams” value amounted to 25.5 Grams in series [2] (75 ppm solution), 26.6 Grams in series [2] (175 ppm solution), 27.1 Grams in series [2] (375 ppm solution) and 28.9 Grams in series [2] (475 ppm solution). The “Marketable Crates/Acre” value in series [2] (75 ppm solution) came out at 431 Crates/Acre; in series [2] (175 ppm solution) it was 435 Crates/Acre; in series [2] (375 ppm solution), 572 Crates/Acre; in series [2] (475 ppm solution), 605 Crates/Acre. In series [2] (comparison in words), the “Yield performance of treated soils versus methyl bromide treated soils” value is “exceeded the methyl bromide treated soils”. For the same molecule, in series [2] (higher versus lower chlorine dioxide levels, in words), the “Yield at the higher chlorine dioxide levels” value was “greater yields”. In series [3], the “Consequences to the environment” value is “without any negative consequences to the environment”.

Take `CBr` [Methyl Bromide, Methyl-bromide, reference compound]: the “Effectiveness as a fumigant” value in series [1] (E.P.A. label recommended dose rates) is reported as “effective as a fumigant”. In addition, in series [2] (setting [4]), the Crates/Acres was found to be 455 Crates/Acres, the “Fruit Grams” value is recorded as 32.8 Grams and the “Marketable Crates/Acre” value came to 428 Crates/Acre. Further, in series [3], the “Consequences to the environment” value was “had an adverse effect on the environment”.
